According to patent US10004701B2, “Methods and compositions for treating infection” (UNIVERSITY OF ROCHESTER, priority 2012, dated 2018):
Structures can show the parent of a compound that is named as a salt. Where two headings read alike, the source gives them in different places.

Experiments:
Test in all cases: AK assay 384-well format, Prestwick library screening
P. aeruginosa = assay type: cell-based, Pseudomonas aeruginosa; conditions: 50 μM final drug concentration; for fold induction at 50 µM: Pseudomonas aeruginosa, 3 h
E. coli = assay type: cell-based, Escherichia coli; conditions: 50 μM final drug concentration; for fold induction at 50 µM: Escherichia coli, 3 h
[1] = system: S. aureus strain USA300-0114; assay type: cell-based, Staphylococcus aureus; conditions: 50 μM final drug concentration; for fold induction at 50 µM: Staphylococcus aureus, USA300, 3 h
[2] = system: A. baumannii strain 98-37-09; assay type: cell-based, Acinetobacter baumannii; conditions: 50 μM final drug concentration; for fold induction at 50 µM: Acinetobacter baumannii, 983709, 3 h
E. cloacae = assay type: cell-based, Enterobacter cloacae; conditions: 50 μM final drug concentration; for fold induction at 50 µM: Enterobacter cloacae, 3 h
K. pneumoniae = assay type: cell-based, Klebsiella pneumoniae; conditions: 50 μM final drug concentration; for fold induction at 50 µM: Klebsiella pneumoniae, 3 h
E. faecium = assay type: cell-based, Enterococcus faecium; conditions: 50 μM final drug concentration; for fold induction at 50 µM: Enterococcus faecium, 3 h
[3] = planktonic P. aeruginosa, 384-well, cutoff for positive-scoring molecules 3-fold increase, read-out: AK-based Prestwick Library Screening Results: P. aeruginosa (increase in extracellular AK activity)
[4] = planktonic E. coli, 384-well, cutoff for positive-scoring molecules 3-fold increase, read-out: AK-based Prestwick Library Screening Results: E. coli (increase in extracellular AK activity)
[5] = planktonic S. aureus, 384-well, cutoff for positive-scoring molecules 3-fold increase, read-out: AK-based Prestwick Library Screening Results: S. aureus (increase in extracellular AK activity)
[6] = planktonic A. baumannii, 384-well, cutoff for positive-scoring molecules 3-fold increase, read-out: AK-based Prestwick Library Screening Results: A. baumannii (increase in extracellular AK activity)
[7] = planktonic E. cloacae, 384-well, cutoff for positive-scoring molecules 3-fold increase, read-out: AK-based Prestwick Library Screening Results: E. cloacae (increase in extracellular AK activity)
[8] = planktonic K. pneumoniae, 384-well, cutoff for positive-scoring molecules 3-fold increase, read-out: AK-based Prestwick Library Screening Results: K. pneumoniae (increase in extracellular AK activity)
[9] = planktonic E. faecium, 384-well, cutoff for positive-scoring molecules 3-fold increase, read-out: AK-based Prestwick Library Screening Results: E. faecium (increase in extracellular AK activity)
[10] = cutoff for positive-scoring molecules 3-fold increase, read-out: AK-based Prestwick Library Screening Results, P. aeruginosa (fold increase in extracellular AK activity)
[11] = cutoff for positive-scoring molecules 3-fold increase, read-out: AK-based Prestwick Library Screening Results, E. coli (fold increase in extracellular AK activity)
[12] = cutoff for positive-scoring molecules 3-fold increase, read-out: AK-based Prestwick Library Screening Results, S. aureus (fold increase in extracellular AK activity)
[13] = cutoff for positive-scoring molecules 3-fold increase, read-out: AK-based Prestwick Library Screening Results, A. baumannii (fold increase in extracellular AK activity)
[14] = cutoff for positive-scoring molecules 3-fold increase, read-out: AK-based Prestwick Library Screening Results, E. cloacae (fold increase in extracellular AK activity)
[15] = cutoff for positive-scoring molecules 3-fold increase, read-out: AK-based Prestwick Library Screening Results, K. pneumoniae (fold increase in extracellular AK activity)
[16] = cutoff for positive-scoring molecules 3-fold increase, read-out: AK-based Prestwick Library Screening Results, E. faecium (fold increase in extracellular AK activity)

For NC(N)=NOCC[C@H](N)C(=O)O.O.O=S(=O)(O)O [Canavanine sulfate monohydrate (L,+)], the “AK-based Prestwick Library Screening Results, P. aeruginosa (fold increase in extracellular AK activity)” value (P. aeruginosa; planktonic, […]) was 1.1, the “AK-based Prestwick Library Screening Results, E. coli (fold increase in extracellular AK activity)” value (E. coli; planktonic, […]) was 1.2 and the “AK-based Prestwick Library Screening Results, S. aureus (fold increase in extracellular AK activity)” value ([1]; planktonic, […]) was 1.6. The “AK-based Prestwick Library Screening Results, A. baumannii (fold increase in extracellular AK activity)” value ([2]; planktonic, […]) was 1.1, the “AK-based Prestwick Library Screening Results, E. cloacae (fold increase in extracellular AK activity)” value (E. cloacae; planktonic, […]) was 1.4 and the “AK-based Prestwick Library Screening Results, K. pneumoniae (fold increase in extracellular AK activity)” value (K. pneumoniae; planktonic, […]) was 0.9. For the same molecule, the “AK-based Prestwick Library Screening Results, E. faecium (fold increase in extracellular AK activity)” value (E. faecium; planktonic, […]) was 1.1.

C[C@]12CCC(=O)C=C1C=C[C@@H]1[C@@H]2CC[C@@]2(C)[C@H]1CC[C@@]2(O)CCC(=O)O [Canrenoic acid potassium salt] showed a fold induction at 50 µM (P. aeruginosa; [3]) of 1.3, a fold induction at 50 µM (E. coli; [4]) of 1.4 and a fold induction at 50 µM [1, 5] of 1.1. The fold induction at 50 µM [2, 6] was 1.5, the fold induction at 50 µM (E. cloacae; [7]) was 1.2 and the fold induction at 50 µM (K. pneumoniae; [8]) was 0.9. For the same molecule, the fold induction at 50 µM (E. faecium; [9]) was 1.

Work on C[C@@]12C(=O)OC(=O)[C@]1(C)[C@H]1CC[C@@H]2O1 [Cantharidin] yielded a fold induction at 50 µM (P. aeruginosa; planktonic, […], read-out: AK-based Prestwick Library Screening Results, P. aeruginosa (fold increase in extracellular AK activity)) of 0.5, a fold induction at 50 µM (E. coli; planktonic, […], read-out: AK-based Prestwick Library Screening Results, E. coli (fold increase in extracellular AK activity)) of 0.6 and a fold induction at 50 µM ([1]; planktonic, […], read-out: AK-based Prestwick Library Screening Results, S. aureus (fold increase in extracellular AK activity)) of 0.5. The fold induction at 50 µM ([2]; planktonic, […], read-out: AK-based Prestwick Library Screening Results, A. baumannii (fold increase in extracellular AK activity)) was 0.5, the fold induction at 50 µM (E. cloacae; planktonic, […], read-out: AK-based Prestwick Library Screening Results, E. cloacae (fold increase in extracellular AK activity)) was 0.6 and the fold induction at 50 µM (K. pneumoniae; planktonic, […], read-out: AK-based Prestwick Library Screening Results, K. pneumoniae (fold increase in extracellular AK activity)) was 0.6. The fold induction at 50 µM (E. faecium; planktonic, […], read-out: AK-based Prestwick Library Screening Results, E. faecium (fold increase in extracellular AK activity)) was 0.8.

COc1cc(CNC(=O)CCCC/C=C/C(C)C)ccc1O [Capsaicin] showed a fold induction at 50 µM (P. aeruginosa; [10]) of 1.1, a fold induction at 50 µM (E. coli; [11]) of 1.3 and a fold induction at 50 µM [1, 12] of 1.2. For the same molecule, the fold induction at 50 µM [2, 13] was 1.2, the fold induction at 50 µM (E. cloacae; [14]) was 1.5 and the fold induction at 50 µM (K. pneumoniae; [15]) was 1. It also gave a fold induction at 50 µM (E. faecium; [16]) of 1.1.

With C[C@H](CS)C(=O)N1CCC[C@H]1C(=O)O [Captopril] the fold induction at 50 µM (P. aeruginosa; 384-well format, cutoff for positive-scoring molecules 3-fold increase, read-out: AK-based Prestwick Library Screening Results, P. aeruginosa (increase in extracellular AK activity)) was 0.6, the fold induction at 50 µM (E. coli; 384-well format, cutoff for positive-scoring molecules 3-fold increase, read-out: AK-based Prestwick Library Screening Results, E. coli (increase in extracellular AK activity)) was 0.7 and the fold induction at 50 µM ([1]; 384-well format, cutoff for positive-scoring molecules 3-fold increase, read-out: AK-based Prestwick Library Screening Results, S. aureus (increase in extracellular AK activity)) was 0.7. The fold induction at 50 µM ([2]; 384-well format, cutoff for positive-scoring molecules 3-fold increase, read-out: AK-based Prestwick Library Screening Results, A. baumannii (increase in extracellular AK activity)) was 0.8, the fold induction at 50 µM (E. cloacae; 384-well format, cutoff for positive-scoring molecules 3-fold increase, read-out: AK-based Prestwick Library Screening Results, E. cloacae (increase in extracellular AK activity)) was 0.8 and the fold induction at 50 µM (K. pneumoniae; 384-well format, cutoff for positive-scoring molecules 3-fold increase, read-out: AK-based Prestwick Library Screening Results, K. pneumoniae (increase in extracellular AK activity)) was 0.6. It also gave a fold induction at 50 µM (E. faecium; 384-well format, cutoff for positive-scoring molecules 3-fold increase, read-out: AK-based Prestwick Library Screening Results, E. faecium (increase in extracellular AK activity)) of 1.

With C[N+](C)(C)CCOC(N)=O [Carbachol] the fold induction at 50 µM (P. aeruginosa; [10]) was 1.2, the fold induction at 50 µM (E. coli; [11]) was 1.2 and the fold induction at 50 µM [1, 12] was 1.4. For the same molecule, the fold induction at 50 µM [2, 13] was 1.3, the fold induction at 50 µM (E. cloacae; [14]) was 1.2 and the fold induction at 50 µM (K. pneumoniae; [15]) was 1.2. For the same molecule, the fold induction at 50 µM (E. faecium; [16]) was 1.1.

NC(=O)N1c2ccccc2C=Cc2ccccc21 [Carbamazepine] gave a fold induction at 50 µM (P. aeruginosa; [3]) of 1, a fold induction at 50 µM (E. coli; [4]) of 1 and a fold induction at 50 µM [1, 5] of 1. For the same molecule, the fold induction at 50 µM [2, 6] was 0.9, the fold induction at 50 µM (E. cloacae; [7]) was 1.5 and the fold induction at 50 µM (K. pneumoniae; [8]) was 0.9. It also gave a fold induction at 50 µM (E. faecium; [9]) of 0.8.

For CC1(C)[C@@H](OC(=O)CCC(=O)O)CC[C@]2(C)[C@H]3C(=O)C=C4[C@@H]5C[C@@](C)(C(=O)O)CC[C@]5(C)CC[C@@]4(C)[C@]3(C)CC[C@@H]12 [Carbenoxolone disodium salt], the fold induction at 50 µM (P. aeruginosa; planktonic, cutoff for positive-scoring molecules 3-fold increase, read-out: AK-based Prestwick Library Screening Results, P. aeruginosa (fold increase in extracellular AK activity)) was 0.9, the fold induction at 50 µM (E. coli; planktonic, cutoff for positive-scoring molecules 3-fold increase, read-out: AK-based Prestwick Library Screening Results, E. coli (fold increase in extracellular AK activity)) was 0.8 and the fold induction at 50 µM ([1]; planktonic, cutoff for positive-scoring molecules 3-fold increase, read-out: AK-based Prestwick Library Screening Results, S. aureus (fold increase in extracellular AK activity)) was 1.6. The fold induction at 50 µM ([2]; planktonic, cutoff for positive-scoring molecules 3-fold increase, read-out: AK-based Prestwick Library Screening Results, A. baumannii (fold increase in extracellular AK activity)) was 1.1, the fold induction at 50 µM (E. cloacae; planktonic, cutoff for positive-scoring molecules 3-fold increase, read-out: AK-based Prestwick Library Screening Results, E. cloacae (fold increase in extracellular AK activity)) was 1.4 and the fold induction at 50 µM (K. pneumoniae; planktonic, cutoff for positive-scoring molecules 3-fold increase, read-out: AK-based Prestwick Library Screening Results, K. pneumoniae (fold increase in extracellular AK activity)) was 0.7. It also gave a fold induction at 50 µM (E. faecium; planktonic, cutoff for positive-scoring molecules 3-fold increase, read-out: AK-based Prestwick Library Screening Results, E. faecium (fold increase in extracellular AK activity)) of 0.9.

Work on CCN(CC)CCOCCOC(=O)C1(c2ccccc2)CCCC1 [Carbetapentane citrate] yielded a fold induction at 50 µM (P. aeruginosa; planktonic, cutoff for positive 3-fold increase, read-out: AK-based Prestwick Library Screening Results, P. aeruginosa (fold increase in extracellular AK activity)) of 1.2, a fold induction at 50 µM (E. coli; planktonic, cutoff for positive 3-fold increase, read-out: AK-based Prestwick Library Screening Results, E. coli (fold increase in extracellular AK activity)) of 1.4 and a fold induction at 50 µM ([1]; planktonic, cutoff for positive 3-fold increase, read-out: AK-based Prestwick Library Screening Results, S. aureus (fold increase in extracellular AK activity)) of 1.1. The fold induction at 50 µM ([2]; planktonic, cutoff for positive 3-fold increase, read-out: AK-based Prestwick Library Screening Results, A. baumannii (fold increase in extracellular AK activity)) was 1.4, the fold induction at 50 µM (E. cloacae; planktonic, cutoff for positive 3-fold increase, read-out: AK-based Prestwick Library Screening Results, E. cloacae (fold increase in extracellular AK activity)) was 1.4 and the fold induction at 50 µM (K. pneumoniae; planktonic, cutoff for positive 3-fold increase, read-out: AK-based Prestwick Library Screening Results, K. pneumoniae (fold increase in extracellular AK activity)) was 1. It also gave a fold induction at 50 µM (E. faecium; planktonic, cutoff for positive 3-fold increase, read-out: AK-based Prestwick Library Screening Results, E. faecium (fold increase in extracellular AK activity)) of 1.
